Experimental data published in patent US11739078B2, “Methods of inhibiting kinases” (INSILICO MEDICINE IP LIMITED, priority 2019, dated 2023).
Where two headings read alike, the source gives them in different places.

Assays:
[1] = molecular target: TNIK (Homo sapiens (Human), UniProt Q9UKE5); assay: TNIK enzymatic assay (radiometric kinase inhibition); type: biochemical
Method: The compounds were studied for function as TNIK inhibitors to generate the data of Table 1. […] (specific activity and concentration as required). The reaction is initiated by the addition of the Mg/ATP mix. After incubation for 40 minutes at room temperature, the reaction is stopped by the addition of phosphoric acid to a concentration of 0.5%.

[2] = molecular target: MAP4K4 (h) (Homo sapiens (Human), UniProt O95819); assay: MAP4K4 in vitro kinase assay (radiometric); type: biochemical; conditions: read-out: MAP4K4_IC50
Method: (specific activity and concentration as required). The reaction is initiated by the addition of the Mg/ATP mix. After incubation for 40 minutes at room temperature, the reaction is stopped by the addition of phosphoric acid to a concentration of 0.5%.

[3] = TNIK enzymatic assay, Table 1, read-out: IC50

Sequence of MAP4K4 (h) (O95819 whole entry): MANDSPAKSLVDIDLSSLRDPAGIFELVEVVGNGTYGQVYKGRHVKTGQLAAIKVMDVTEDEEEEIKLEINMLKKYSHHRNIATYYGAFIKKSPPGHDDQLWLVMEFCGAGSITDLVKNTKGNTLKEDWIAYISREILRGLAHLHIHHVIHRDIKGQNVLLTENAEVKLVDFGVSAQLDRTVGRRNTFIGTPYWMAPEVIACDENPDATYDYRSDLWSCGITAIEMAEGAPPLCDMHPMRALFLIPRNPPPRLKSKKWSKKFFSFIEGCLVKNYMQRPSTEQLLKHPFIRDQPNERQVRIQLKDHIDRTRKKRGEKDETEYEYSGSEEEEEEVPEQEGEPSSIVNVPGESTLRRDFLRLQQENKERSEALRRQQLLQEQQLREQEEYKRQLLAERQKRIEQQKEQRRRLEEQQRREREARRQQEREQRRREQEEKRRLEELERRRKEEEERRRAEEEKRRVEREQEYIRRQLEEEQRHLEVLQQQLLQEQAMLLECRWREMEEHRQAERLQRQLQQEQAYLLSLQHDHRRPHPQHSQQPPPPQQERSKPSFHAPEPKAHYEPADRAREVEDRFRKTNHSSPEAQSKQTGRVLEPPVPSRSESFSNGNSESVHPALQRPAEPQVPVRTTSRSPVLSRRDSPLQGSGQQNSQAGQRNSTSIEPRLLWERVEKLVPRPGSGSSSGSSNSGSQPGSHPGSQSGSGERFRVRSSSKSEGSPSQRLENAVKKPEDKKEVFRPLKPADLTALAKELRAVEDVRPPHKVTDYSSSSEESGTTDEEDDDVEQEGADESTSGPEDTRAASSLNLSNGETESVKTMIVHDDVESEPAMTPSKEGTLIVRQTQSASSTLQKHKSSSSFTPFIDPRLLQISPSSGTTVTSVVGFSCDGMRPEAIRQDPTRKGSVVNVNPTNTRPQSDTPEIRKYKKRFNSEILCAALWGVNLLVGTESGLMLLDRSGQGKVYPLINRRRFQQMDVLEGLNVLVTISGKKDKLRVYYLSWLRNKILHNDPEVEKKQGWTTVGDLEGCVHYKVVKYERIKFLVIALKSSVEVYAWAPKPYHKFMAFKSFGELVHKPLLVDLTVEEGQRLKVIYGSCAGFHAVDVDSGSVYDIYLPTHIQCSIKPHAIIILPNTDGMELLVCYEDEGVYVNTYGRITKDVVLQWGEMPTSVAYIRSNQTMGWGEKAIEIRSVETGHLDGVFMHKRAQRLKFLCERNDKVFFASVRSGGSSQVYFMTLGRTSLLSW
Sequence of TNIK (Q9UKE5 whole entry): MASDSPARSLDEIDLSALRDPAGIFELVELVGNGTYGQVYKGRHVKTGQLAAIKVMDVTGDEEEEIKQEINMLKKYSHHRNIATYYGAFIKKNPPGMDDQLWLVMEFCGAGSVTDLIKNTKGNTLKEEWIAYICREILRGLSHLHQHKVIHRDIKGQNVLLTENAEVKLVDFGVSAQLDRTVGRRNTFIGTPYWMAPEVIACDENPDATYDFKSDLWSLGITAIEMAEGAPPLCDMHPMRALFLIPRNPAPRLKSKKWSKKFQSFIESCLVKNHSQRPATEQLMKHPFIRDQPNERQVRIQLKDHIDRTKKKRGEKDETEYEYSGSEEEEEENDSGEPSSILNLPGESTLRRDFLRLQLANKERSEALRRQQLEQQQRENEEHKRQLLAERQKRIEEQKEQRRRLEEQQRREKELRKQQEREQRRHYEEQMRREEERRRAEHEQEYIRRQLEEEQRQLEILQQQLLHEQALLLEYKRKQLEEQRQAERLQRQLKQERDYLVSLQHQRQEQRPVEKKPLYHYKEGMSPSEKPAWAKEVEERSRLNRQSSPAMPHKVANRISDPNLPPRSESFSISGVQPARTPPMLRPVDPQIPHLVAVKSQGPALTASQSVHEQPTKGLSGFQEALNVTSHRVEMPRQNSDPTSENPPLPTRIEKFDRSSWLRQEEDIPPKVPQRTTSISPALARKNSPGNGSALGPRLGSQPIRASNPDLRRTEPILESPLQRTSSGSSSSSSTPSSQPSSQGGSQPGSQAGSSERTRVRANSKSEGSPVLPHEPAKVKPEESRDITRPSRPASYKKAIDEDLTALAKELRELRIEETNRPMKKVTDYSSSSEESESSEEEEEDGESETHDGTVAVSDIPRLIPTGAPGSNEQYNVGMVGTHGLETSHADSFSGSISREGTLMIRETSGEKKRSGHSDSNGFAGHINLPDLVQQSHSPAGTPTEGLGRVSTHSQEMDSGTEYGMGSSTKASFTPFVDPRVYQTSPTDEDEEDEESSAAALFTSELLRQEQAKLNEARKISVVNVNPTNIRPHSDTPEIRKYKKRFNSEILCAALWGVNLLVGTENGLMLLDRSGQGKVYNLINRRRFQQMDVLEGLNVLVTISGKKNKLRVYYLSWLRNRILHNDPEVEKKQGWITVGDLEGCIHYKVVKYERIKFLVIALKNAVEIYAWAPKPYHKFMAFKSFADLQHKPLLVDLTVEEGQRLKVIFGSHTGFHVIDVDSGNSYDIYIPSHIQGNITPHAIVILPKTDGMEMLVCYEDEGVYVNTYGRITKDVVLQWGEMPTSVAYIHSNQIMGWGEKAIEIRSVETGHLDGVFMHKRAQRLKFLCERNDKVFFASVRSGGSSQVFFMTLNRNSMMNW

| SMILES | IC50 ([1]; read-out: TNIK_IC50) [nM] | IC50 [1, 3] [nM] | IC50 [2] [nM] |
| --- | --- | --- | --- |
| O=C(Nc1cc[nH]c(=O)c1)c1ccc(-c2c(-c3ccc(F)cc3)ncn2C2COC[C@@H]2F)o1 (mixture of isomers) [Compound A-57, rac-5-(4-(4-fluorophenyl)-1-((4R)-4-fluorotetrahydrofuran-3-yl)-1H-imidazol-5-yl)-N-(2-oxo-1,2-dihydropyridin-4-yl)furan-2-carboxamide] | 1160 | – | – |
| O=C(Nc1ccc(F)cc1F)c1ccc(-c2c(-c3ccc(F)cc3)ncn2C2CCCC2)o1 [Compound 1, 5-(1-cyclopentyl-4-(4-fluorophenyl)-1H-imidazol-5-yl)-N-(2,4-difluorophenyl)furan-2-carboxamide] | 30 | 30 | 97.6 |
| COc1ccc(OC)c(NC(=O)c2ccc(-c3c(-c4ccc(F)cc4)ncn3C3CCCC3)o2)c1 [Compound 2, 5-(1-cyclopentyl-4-(4-fluorophenyl)-1H-imidazol-5-yl)-N-(2,5-dimethoxyphenyl)furan-2-carboxamide] | 3.07 | < 10 | 10.2 |
| O=C(Nc1cc(F)ccc1F)c1ccc(-c2c(-c3ccc(F)cc3)ncn2C2CCCC2)o1 [Compound 3, 5-(1-cyclopentyl-4-(4-fluorophenyl)-1H-imidazol-5-yl)-N-(2,5-difluorophenyl)furan-2-carboxamide] | 3.82 | < 10 | 24.6 |
| COc1cccc(NC(=O)c2ccc(-c3c(-c4ccc(C)cc4)ncn3C3CCCCC3)o2)c1 [Compound 4, 5-(1-cyclohexyl-4-(p-tolyl)-1H-imidazol-5-yl)-N-(3-methoxyphenyl)furan-2-carboxamide] | 9320 | 9320 | > 1000 |
| COc1ccc(NC(=O)c2ccc(-c3c(-c4ccc(C)cc4)ncn3C3CCCCC3)o2)cc1 [Compound 5, 5-(1-cyclohexyl-4-(p-tolyl)-1H-imidazol-5-yl)-N-(4-methoxyphenyl)furan-2-carboxamide] | 2410 | 2410 | > 1000 |
| COc1cc(NC(=O)c2ccc(-c3c(-c4ccc(C)cc4)ncn3C3CCCCC3)o2)cc(OC)c1 [Compound 6, 5-(1-cyclohexyl-4-(p-tolyl)-1H-imidazol-5-yl)-N-(3,5-dimethoxyphenyl)furan-2-carboxamide] | 9730 | 9730 | > 1000 |
| Cc1ccc(-c2ncn(C3CCCCC3)c2-c2ccc(C(=O)Nc3ccccc3F)o2)cc1 [Compound 7, 5-(1-cyclohexyl-4-(p-tolyl)-1H-imidazol-5-yl)-N-(2-fluorophenyl)furan-2-carboxamide] | 1510 | 1510 | > 1000 |
| Cc1ccc(-c2ncn(C3CCCCC3)c2-c2ccc(C(=O)Nc3ccc(F)cc3)o2)cc1 [Compound 8, 5-(1-cyclohexyl-4-(p-tolyl)-1H-imidazol-5-yl)-N-(4-fluorophenyl)furan-2-carboxamide] | 4450 | 4450 | > 1000 |
| CC(=O)c1ccc(NC(=O)c2ccc(-c3c(-c4ccc(F)cc4)ncn3C3CCCC3)o2)cc1 [Compound 9, N-(4-acetylphenyl)-5-(1-cyclopentyl-4-(4-fluorophenyl)-1H-imidazol-5-yl)furan-2-carboxamide] | 11 | 11 | 36.8 |
| O=C(Nc1ccccc1C(F)(F)F)c1ccc(-c2c(-c3ccc(F)cc3)ncn2C2CCCC2)o1 [Compound 10, 5-(1-cyclopentyl-4-(4-fluorophenyl)-1H-imidazol-5-yl)-N-(2-(trifluoromethyl)phenyl)furan-2-carboxamide] | < 10 | 10 | 30.4 |
| COc1ccc(NC(=O)c2ccc(-c3c(-c4ccc(F)cc4)ncn3C3CCCC3)o2)cc1OC [Compound 11, 5-(1-cyclopentyl-4-(4-fluorophenyl)-1H-imidazol-5-yl)-N-(3,4-dimethoxyphenyl)furan-2-carboxamide] | 42 | 42 | 93.2 |
| COc1cccc(NC(=O)c2ccc(-c3c(-c4ccc(F)cc4)ncn3C3CCCC3)o2)c1 [Compound 12, 5-(1-cyclopentyl-4-(4-fluorophenyl)-1H-imidazol-5-yl)-N-(3-methoxyphenyl)furan-2-carboxamide] | 101 | 101 | 141 |
| O=C(Nc1ccccc1Br)c1ccc(-c2c(-c3ccc(F)cc3)ncn2C2CCCC2)o1 [Compound 13, N-(2-bromophenyl)-5-(1-cyclopentyl-4-(4-fluorophenyl)-1H-imidazol-5-yl)furan-2-carboxamide] | 12 | < 10 | 15.2 |
| O=C(Nc1ccccc1Cl)c1ccc(-c2c(-c3ccc(F)cc3)ncn2C2CCCC2)o1 [Compound 14, N-(2-chlorophenyl)-5-(1-cyclopentyl-4-(4-fluorophenyl)-1H-imidazol-5-yl)furan-2-carboxamide] | 15.2 | < 10 | 10.9 |
| O=C(Nc1ccc(Cl)cc1)c1ccc(-c2c(-c3ccc(F)cc3)ncn2C2CCCC2)o1 [Compound 15, N-(4-chlorophenyl)-5-(1-cyclopentyl-4-(4-fluorophenyl)-1H-imidazol-5-yl)furan-2-carboxamide] | 101 | 101 | 116 |
| Cc1cc(Cl)ccc1NC(=O)c1ccc(-c2c(-c3ccc(F)cc3)ncn2C2CCCC2)o1 [Compound 16, N-(4-chloro-2-methylphenyl)-5-(1-cyclopentyl-4-(4-fluorophenyl)-1H-imidazol-5-yl)furan-2-carboxamide] | 38 | 38 | 101 |
| Cc1ccc(Cl)cc1NC(=O)c1ccc(-c2c(-c3ccc(F)cc3)ncn2C2CCCC2)o1 [Compound 17, N-(5-chloro-2-methylphenyl)-5-(1-cyclopentyl-4-(4-fluorophenyl)-1H-imidazol-5-yl)furan-2-carboxamide] | 46 | 46 | 106 |
| COc1ccc(NC(=O)c2ccc(-c3c(-c4ccc(F)cc4)ncn3C3CCCC3)o2)c(OC)c1 [Compound 18, 5-(1-cyclopentyl-4-(4-fluorophenyl)-1H-imidazol-5-yl)-N-(2,4-dimethoxyphenyl)furan-2-carboxamide] | 2.33 | < 10 | 4.05 |
| COc1cc(NC(=O)c2ccc(-c3c(-c4ccc(F)cc4)ncn3C3CCCC3)o2)cc(OC)c1 [Compound 19, 5-(1-cyclopentyl-4-(4-fluorophenyl)-1H-imidazol-5-yl)-N-(3,5-dimethoxyphenyl)furan-2-carboxamide] | 231 | 231 | 204 |
| Cc1cccc(NC(=O)c2ccc(-c3c(-c4ccc(F)cc4)ncn3C3CCCC3)o2)c1C [Compound 20, 5-(1-cyclopentyl-4-(4-fluorophenyl)-1H-imidazol-5-yl)-N-(2,3-dimethylphenyl)furan-2-carboxamide] | 136 | 136 | 129 |
| Cc1cccc(C)c1NC(=O)c1ccc(-c2c(-c3ccc(F)cc3)ncn2C2CCCC2)o1 [Compound 21, 5-(1-cyclopentyl-4-(4-fluorophenyl)-1H-imidazol-5-yl)-N-(2,6-dimethylphenyl)furan-2-carboxamide] | 214 | 214 | > 1000 |
| CCOC(=O)c1cccc(NC(=O)c2ccc(-c3c(-c4ccc(F)cc4)ncn3C3CCCC3)o2)c1 [Compound 22, ethyl 3-(5-(1-cyclopentyl-4-(4-fluorophenyl)-1H-imidazol-5-yl)furan-2-carboxamido)benzoate] | 483 | 483 | > 1000 |
| CCc1ccc(NC(=O)c2ccc(-c3c(-c4ccc(F)cc4)ncn3C3CCCC3)o2)cc1 [Compound 23, 5-(1-cyclopentyl-4-(4-fluorophenyl)-1H-imidazol-5-yl)-N-(4-ethylphenyl)furan-2-carboxamide] | 55 | 55 | 102 |
| O=C(Nc1cccc(F)c1)c1ccc(-c2c(-c3ccc(F)cc3)ncn2C2CCCC2)o1 [Compound 25, 5-(1-cyclopentyl-4-(4-fluorophenyl)-1H-imidazol-5-yl)-N-(3-fluorophenyl)furan-2-carboxamide] | 59 | 59 | 83.4 |
| O=C(Nc1ccc(F)cc1)c1ccc(-c2c(-c3ccc(F)cc3)ncn2C2CCCC2)o1 [Compound 26, 5-(1-cyclopentyl-4-(4-fluorophenyl)-1H-imidazol-5-yl)-N-(4-fluorophenyl)furan-2-carboxamide] | 55 | 55 | 97.9 |
| COC(=O)c1ccccc1NC(=O)c1ccc(-c2c(-c3ccc(F)cc3)ncn2C2CCCC2)o1 [Compound 27, methyl 2-(5-(1-cyclopentyl-4-(4-fluorophenyl)-1H-imidazol-5-yl)furan-2-carboxamido)benzoate] | 5.11 | < 10 | 11.5 |
| CCOc1ccc(NC(=O)c2ccc(-c3c(-c4ccc(F)cc4)ncn3C3CCCC3)o2)cc1 [Compound 28, 5-(1-cyclopentyl-4-(4-fluorophenyl)-1H-imidazol-5-yl)-N-(4-ethoxyphenyl)furan-2-carboxamide] | 37 | 37 | 63.7 |
| Cc1ccccc1NC(=O)c1ccc(-c2c(-c3ccc(F)cc3)ncn2C2CCCC2)o1 [Compound 29, 5-(1-cyclopentyl-4-(4-fluorophenyl)-1H-imidazol-5-yl)-N-(o-tolyl)furan-2-carboxamide] | 62 | 62 | 115 |
| Cc1ccc(NC(=O)c2ccc(-c3c(-c4ccc(F)cc4)ncn3C3CCCC3)o2)cc1Cl [Compound 30, N-(3-chloro-4-methylphenyl)-5-(1-cyclopentyl-4-(4-fluorophenyl)-1H-imidazol-5-yl)furan-2-carboxamide] | 95 | 95 | 888 |
